Measurements as given in patent US5672710A, “Sulfides, sulfoxides and sulfones disubstituted with a tetrahydronaphthalenyl, chromanyl, thiochromanyl or tetrahydroquinolinyl and substituted phenyl or heteroaryl group, having retinoid-like biological activity” (priority 1995, dated 1997).

Key:
RARγ [1] = target: T1, RARγ (Homo sapiens, UniProt P13631); test: Holoreceptor transactivation assay, RARγ; type: cell-based; conditions: CV-1; CV1 cells; relative to all trans retinoic acid; read-out: Transactivation Assay Efficacy (% of RA activity), RARγ
T1 construct: expressed in transfected cells; host or cells: CV1
T1 sequence (P13631 1-454): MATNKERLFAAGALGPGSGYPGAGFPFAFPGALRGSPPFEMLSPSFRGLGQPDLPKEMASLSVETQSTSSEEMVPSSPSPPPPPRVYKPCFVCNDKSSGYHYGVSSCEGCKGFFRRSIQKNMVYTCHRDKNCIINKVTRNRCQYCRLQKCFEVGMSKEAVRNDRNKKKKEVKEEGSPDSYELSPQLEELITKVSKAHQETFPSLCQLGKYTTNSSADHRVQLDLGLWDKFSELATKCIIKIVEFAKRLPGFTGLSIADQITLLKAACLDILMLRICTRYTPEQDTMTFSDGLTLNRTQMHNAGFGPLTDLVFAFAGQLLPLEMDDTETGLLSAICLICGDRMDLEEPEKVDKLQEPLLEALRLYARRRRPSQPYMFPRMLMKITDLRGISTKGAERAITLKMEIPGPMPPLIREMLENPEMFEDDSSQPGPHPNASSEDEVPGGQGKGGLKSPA
Excerpt: (§1) A holoreceptor transactivation assay and a ligand binding assay which measure the ability of the compounds of the invention to bind to the several retinoid receptor subtypes, respectively, are described in published PCT Application No. WO W093/11755 (particularly on pages 30-33 and 37-41) published on Jun. 24, 1993, the specification of which is also incorporated herein by reference. A description of the holoreceptor transactivation assay is also provided below.
(§2) CV1 cells (5,000 cells/well) were transfected with an RAR reporter plasmid MTV-TREp-LUC (50 ng) along with one of the […] expression vectors (10 ng) in an automated 96-well format by the calcium phosphate procedure of Heyman et al. Cell 68, 397-406. (8). For RXRα and RXR.GAMMA. transactivation assays, an RXR-responsive reporter plasmid CRBPII-tk-LUC (50 ng) along with the appropriate RXRexpression vectors (10 ng) was used substantially as described by Heyman et al. above, and Allegretto et al. J. Biol. Chem. 268, 26625-26633. For RXRβ transactivation assays, an RXR-responsive reporter plasmid CPRE-tk-LUC ([…]) along with RXRβ expression vector ([…]) was used as described in above. These reporters contain DRI elements from human CRBPII and certain DRI elements from promoter, respectively. (see Mangelsdorf et al. The Retinoids: Biology, Chemistry and Medicine, pp 319-349, Raven Press Ltd., New York and Heyman et al., cited above) (1, 8). A β-galactosidase (50 ng) expression vector was used as an internal control in the transfections to normalize for variations in transfection efficiency. The cells were transfected in triplicate for 6 hours, followed by incubation with retinoids for 36 hours, and the extracts were assayed for luciferase and β-galactosidase activities. The detailed experimental procedure for holoreceptor transactivations has been described in Heyman et al. above, and Allegretto et al. cited above. The results obtained in this assay in connection with examplary compounds in accordance with the present invention are expressed in EC50 numbers, as they are also in the chimeric receptor transactivation assay. The Heyman et al. Cell 68, 397-406, Allegretto et al. J. Biol. Chem. 268, 26625-26633, and Mangelsdorf et al. The Retinoids: Biology, Chemistry and Medicine, pp 319-349, Raven Press Ltd., New York, are expressly incorporated herein by reference. The results of ligand binding assay are expressed in Kd numbers. (See Cheng et al. Biochemical Pharmacology Vol. 22 pp 3099-3108, expressly incorporated herein by reference.)

RARβ [2] = target: T2, RARβ (Homo sapiens, UniProt P10826); test: Ligand binding assay, RARβ
T2 construct: expressed in transfected cells; host or cells: CV1
T2 sequence (P10826 1-448 isoform P10826-2): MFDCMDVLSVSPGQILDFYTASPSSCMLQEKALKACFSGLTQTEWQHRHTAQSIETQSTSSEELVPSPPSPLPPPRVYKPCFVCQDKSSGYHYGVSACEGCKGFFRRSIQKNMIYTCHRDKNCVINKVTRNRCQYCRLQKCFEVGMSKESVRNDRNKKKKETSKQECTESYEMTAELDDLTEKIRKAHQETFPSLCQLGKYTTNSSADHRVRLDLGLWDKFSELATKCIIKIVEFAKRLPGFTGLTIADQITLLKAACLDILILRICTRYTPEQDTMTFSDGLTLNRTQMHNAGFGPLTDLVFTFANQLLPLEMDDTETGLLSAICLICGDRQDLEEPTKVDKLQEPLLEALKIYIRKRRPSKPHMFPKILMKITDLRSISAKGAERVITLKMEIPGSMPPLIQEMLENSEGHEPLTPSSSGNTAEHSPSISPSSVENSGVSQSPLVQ
Excerpt: as §1, §2

RARβ [3] = target: T2, RARβ; test: Holoreceptor transactivation assay, RARβ; type: cell-based; conditions: CV-1; CV1 cells; relative to all trans retinoic acid; read-out: Transactivation Assay Efficacy (% of RA activity), RARβ
Excerpt: as §1, §2

RXRβ = target: T3, RXRβ (Mus musculus, UniProt P28704); test: Ligand binding assay, RXRβ
T3 construct: expressed in transfected cells; host or cells: CV1
T3 sequence (P28704 1-520): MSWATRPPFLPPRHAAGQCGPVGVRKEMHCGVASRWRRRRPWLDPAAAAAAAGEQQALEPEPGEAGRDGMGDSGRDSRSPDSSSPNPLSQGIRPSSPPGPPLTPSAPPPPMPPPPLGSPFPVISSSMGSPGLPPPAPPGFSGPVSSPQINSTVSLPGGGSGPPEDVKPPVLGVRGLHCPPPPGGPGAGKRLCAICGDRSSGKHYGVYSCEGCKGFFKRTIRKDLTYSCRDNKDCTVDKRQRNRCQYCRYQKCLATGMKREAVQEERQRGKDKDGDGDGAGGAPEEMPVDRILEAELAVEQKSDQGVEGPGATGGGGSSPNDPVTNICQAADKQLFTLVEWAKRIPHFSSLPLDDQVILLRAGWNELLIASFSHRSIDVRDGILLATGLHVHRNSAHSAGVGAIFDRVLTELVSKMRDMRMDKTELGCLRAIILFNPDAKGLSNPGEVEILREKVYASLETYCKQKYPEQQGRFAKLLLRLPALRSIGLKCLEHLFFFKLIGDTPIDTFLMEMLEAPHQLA
Excerpt: as §1, §2

RARγ [4] = target: T1, RARγ; test: Ligand binding assay, RARγ
Excerpt: as §1, §2

| Emax (RARγ [1]) | Kd (RARβ [2]) | Emax (RARβ [3]) | Kd (RXRβ) | Kd (RARγ [4]) | Structure (SMILES) |
| --- | --- | --- | --- | --- | --- |
| 0% | > 1000 nM | 6% |  | > 1000 nM | Cc1cc2c(cc1S(=O)(=O)c1ccc(C(=O)O)cc1)C(C)(C)CCC2(C)C [Compound 11, 4-(5,6,7,8-tetrahydro-3,5,5,8,8-pentamethyl-2-naphthylsulfonyl)benzoic acid] |
| 0% | > 10000 nM | 4% | 57 nM | > 10000 nM | Cc1cc2c(cc1Sc1ccc(C(=O)O)cn1)C(C)(C)CCC2(C)C [Compound 13] |
| 7% | > 1000 nM | 0% | > 1000 nM | > 1000 nM | Cc1cc2c(cc1Sc1ncc(C(=O)O)s1)C(C)(C)CCC2(C)C [Compound 15, 2-(5,6,7,8-Tetrahydro-3,5,5,8,8-pentamethyl-2-naphthylthio)-5-thiazolecarboxylic acid] |

The remaining lines, values behind:

| Structure (SMILES) | Emax (RARγ [1]) | Kd (RARβ [2]) | Emax (RARβ [3]) | Kd (RXRβ) | Kd (RARγ [4]) |
| --- | --- | --- | --- | --- | --- |
| CC1(C)CCC(C)(C)c2cc(Sc3ccc(C(=O)O)cc3)ccc21 [Compound 2] | 37% | > 1000 nM | 66% | > 1000 nM | > 1000 nM |
| CC1(C)CCC(C)(C)c2cc(S(=O)(=O)c3ccc(C(=O)O)cc3)ccc21 [Compound 5, 4-(5,6,7,8-tetrahydro-5,5,8,8-tetramethyl-2-naphthylsulfonyl)benzoic acid] | 0% | > 1000 nM | 4% | > 1000 nM | > 1000 nM |
| Cc1cc2c(cc1Sc1ccc(C(=O)O)cc1)C(C)(C)CCC2(C)C [Compound 7, 4-(5,6,7,8-tetrahydro-3,5,5,8,8-pentamethyl-2-Daphthylthio)benzoic acid] | 11% | > 1000 nM | 4% | 302 nM | > 1000 nM |
| Cc1cc2c(cc1[S+]([O-])c1ccc(C(=O)O)cc1)C(C)(C)CCC2(C)C (stereo not shown) [Compound 9, 4-(5,6,7,8-tetrahydro-3,5,5,8,8-pentamethyl-2-naphthylsulfoxy)benzoic acid] | 3% | > 1000 nM | 4% | > 1000 nM | > 1000 nM |
